This passage reports IC50 results from US20260078122A1, “INDAZOLE COMPOUNDS AS PKMYT1 KINASE INHIBITORS” (Hoffmann-La Roche Inc., priority 2023, published 2026).

One may read the IC50 as the concentration that inhibits the measured activity by half.

Some results are limits rather than exact numbers.

The test has as its target T1, recombinant human Myt1 (full length PKMYT1) (Homo sapiens, UniProt Q99640).
T1 sequence (Q99640 1-499): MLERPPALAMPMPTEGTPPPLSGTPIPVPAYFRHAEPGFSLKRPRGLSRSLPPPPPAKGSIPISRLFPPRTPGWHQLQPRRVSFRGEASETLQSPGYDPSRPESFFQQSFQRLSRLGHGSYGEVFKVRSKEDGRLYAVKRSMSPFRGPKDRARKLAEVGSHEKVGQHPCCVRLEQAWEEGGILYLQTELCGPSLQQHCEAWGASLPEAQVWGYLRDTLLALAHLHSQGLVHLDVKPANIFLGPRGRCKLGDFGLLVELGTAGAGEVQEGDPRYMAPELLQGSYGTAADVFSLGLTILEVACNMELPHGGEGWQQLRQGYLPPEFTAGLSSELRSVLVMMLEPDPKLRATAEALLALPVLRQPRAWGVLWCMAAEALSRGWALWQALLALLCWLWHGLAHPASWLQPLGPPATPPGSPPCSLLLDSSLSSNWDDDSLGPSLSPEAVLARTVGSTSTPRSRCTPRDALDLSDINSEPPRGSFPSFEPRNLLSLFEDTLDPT
Kind of test: ADP-Glo assay (Myt1 kinase activity). (In general: In ADP-Glo the light output rises with the ADP produced.)
Take `CC(=O)c1nc2c(-c3ccc(F)c4[nH]ncc34)c(N)c(=O)[nH]c2c(Cl)c1C` [Example 112, 6-Acetyl-3-amino-8-chloro-4-(7-fluoro-1H-indazol-4-yl)-7-methyl-1H-1,5-naphthyridin-2-one]: the IC50 is under 10 nM. With `C=Cc1nc2c(-c3ccc(F)c4[nH]ncc34)c(N)c(=O)[nH]c2c(Cl)c1C` [Example 113, 3-Amino-8-chloro-4-(7-fluoro-1H-indazol-4-yl)-7-methyl-6-vinyl-1H-1,5-naphthyridin-2-one], the IC50 is under 10 nM. Then `Cc1c(C2CC2)nc2c(-c3ccc(F)c4[nH]ncc34)c(N)c(=O)[nH]c2c1C1CC1` [Example 114, 3-Amino-6,8-dicyclopropyl-4-(7-fluoro-1H-indazol-4-yl)-7-methyl-1H-1,5-naphthyridin-2-one], with 13.6 nM; and `Cc1c(Br)cnc2c(-c3ccc(F)c4[nH]ncc34)c(N)c(=O)[nH]c12` [Example 115, 3-Amino-7-bromo-4-(7-fluoro-1H-indazol-4-yl)-8-methyl-1H-1,5-naphthyridin-2-one], with under 10 nM; and `Cc1c(I)cnc2c(-c3ccc(F)c4[nH]ncc34)c(N)c(=O)[nH]c12` [Example 116, 3-Amino-4-(7-fluoro-1H-indazol-4-yl)-7-iodo-8-methyl-1H-1,5-naphthyridin-2-one], with under 10 nM. `Cc1c(C2CCC2)cnc2c(-c3ccc(F)c4[nH]ncc34)c(N)c(=O)[nH]c12` [Example 119, 3-Amino-7-cyclobutyl-4-(7-fluoro-1H-indazol-4-yl)-8-methyl-1H-1,5-naphthyridin-2-one]: the IC50 amounted to 13 nM.

For `Cc1c(-c2nccs2)cnc2c(-c3ccc(F)c4[nH]ncc34)c(N)c(=O)[nH]c12` [Example 121, 3-Amino-4-(7-fluoro-1H-indazol-4-yl)-8-methyl-7-thiazol-2-yl-1H-1,5-naphthyridin-2-one], the IC50 turned out to be 10.7 nM. In the case of `C=Cc1cnc2c(-c3ccc(F)c4[nH]ncc34)c(N)c(=O)[nH]c2c1C` [Example 123, 3-Amino-4-(7-fluoro-1H-indazol-4-yl)-8-methyl-7-vinyl-1H-1,5-naphthyridin-2-one], the IC50 was under 10 nM. The figure for `C=C(C)c1cnc2c(-c3ccc(F)c4[nH]ncc34)c(N)c(=O)[nH]c2c1C` [Example 125, 3-Amino-4-(7-fluoro-1H-indazol-4-yl)-7-isopropenyl-8-methyl-1H-1,5-naphthyridin-2-one] is under 10 nM; for `Cc1c(C2CCCC2)cnc2c(-c3ccc(F)c4[nH]ncc34)c(N)c(=O)[nH]c12` [Example 126, 3-Amino-7-cyclopentyl-4-(7-fluoro-1H-indazol-4-yl)-8-methyl-1H-1,5-naphthyridin-2-one] it is under 10 nM; for `Cc1c(C2(C)CC2)cnc2c(-c3ccc(F)c4[nH]ncc34)c(N)c(=O)[nH]c12` [Example 129, 3-Amino-4-(7-fluoro-1H-indazol-4-yl)-8-methyl-7-(1-methylcyclopropyl)-1H-1,5-naphthyridin-2-one] it is 12.8 nM.

`Cc1c(C2CC2(C)C)cnc2c(-c3ccc(F)c4[nH]ncc34)c(N)c(=O)[nH]c12` (stereo not shown) [Example 130, 3-Amino-7-(2,2-dimethylcyclopropyl)-4-(7-fluoro-1H-indazol-4-yl)-8-methyl-1H-1,5-naphthyridin-2-one]: the IC50 was 12.3 nM. Consider `Cc1c(CC2CC2)cnc2c(-c3ccc(F)c4[nH]ncc34)c(N)c(=O)[nH]c12` [Example 131, 3-Amino-7-(cyclopropylmethyl)-4-(7-fluoro-1H-indazol-4-yl)-8-methyl-1H-1,5-naphthyridin-2-one], for which the IC50 amounted to 17.5 nM. The figure for `Cc1c(C2CC2F)cnc2c(-c3ccc(F)c4[nH]ncc34)c(N)c(=O)[nH]c12` (stereo not shown) [Example 132, 3-Amino-7-(2-fluorocyclopropyl)-4-(7-fluoro-1H-indazol-4-yl)-8-methyl-1H-1,5-naphthyridin-2-one] is under 10 nM; for `Cc1c(F)cnc2c(-c3ccc(F)c4[nH]ncc34)c(N)c(=O)[nH]c12` [Example 135, 3-Amino-7-fluoro-4-(7-fluoro-1H-indazol-4-yl)-8-methyl-1H-1,5-naphthyridin-2-one] it is 14 nM; for `Cc1c(OCC(F)(F)F)cnc2c(-c3ccc(F)c4[nH]ncc34)c(N)c(=O)[nH]c12` [Example 137, 3-Amino-4-(7-fluoro-1H-indazol-4-yl)-8-methyl-7-(2,2,2-trifluoroethoxy)-1H-1,5-naphthyridin-2-one] it is 14.1 nM.

As to `Cc1c(OC(C)C)cnc2c(-c3ccc(F)c4[nH]ncc34)c(N)c(=O)[nH]c12` [Example 138, 3-Amino-4-(7-fluoro-1H-indazol-4-yl)-7-isopropoxy-8-methyl-1H-1,5-naphthyridin-2-one], the IC50 was 14.2 nM.

In the case of `Cc1c(OC2CCC2)cnc2c(-c3ccc(F)c4[nH]ncc34)c(N)c(=O)[nH]c12` [Example 139, 3-Amino-7-(cyclobutoxy)-4-(7-fluoro-1H-indazol-4-yl)-8-methyl-1H-1,5-naphthyridin-2-one], the IC50 amounted to 13.2 nM.

As for `CCOc1cnc2c(-c3ccc(F)c4[nH]ncc34)c(N)c(=O)[nH]c2c1C` [Example 140, 3-Amino-7-ethoxy-4-(7-fluoro-1H-indazol-4-yl)-8-methyl-1H-1,5-naphthyridin-2-one], the IC50 is 11.8 nM. The figure for `CSc1cnc2c(-c3ccc(F)c4[nH]ncc34)c(N)c(=O)[nH]c2c1C` [Example 141, 3-Amino-4-(7-fluoro-1H-indazol-4-yl)-8-methyl-7-methylsulfanyl-1H-1,5-naphthyridin-2-one] is 10.4 nM; for `Cc1cnc2c(-c3ccc(F)c4[nH]ncc34)c(N)c(=O)[nH]c2c1C(F)F` [Example 145, 3-Amino-8-(difluoromethyl)-4-(7-fluoro-1H-indazol-4-yl)-7-methyl-1H-1,5-naphthyridin-2-one] it is 18.5 nM. The figure for `Cc1cc(C#CC(C)(C)O)nc2c(-c3ccc(F)c4[nH]ncc34)c(N)c(=O)[nH]c12` [Example 148, 3-Amino-4-(7-fluoro-1H-indazol-4-yl)-6-(3-hydroxy-3-methyl-but-1-ynyl)-8-methyl-1H-1,5-naphthyridin-2-one] is under 10 nM; for `COC(C)(C)C#Cc1cc(C)c2[nH]c(=O)c(N)c(-c3ccc(F)c4[nH]ncc34)c2n1` [Example 149, 3-Amino-4-(7-fluoro-1H-indazol-4-yl)-6-(3-methoxy-3-methyl-but-1-ynyl)-8-methyl-1H-1,5-naphthyridin-2-one] it is under 10 nM. Then `Cc1cc(C#CC2COC2)nc2c(-c3ccc(F)c4[nH]ncc34)c(N)c(=O)[nH]c12` [Example 150, 3-Amino-4-(7-fluoro-1H-indazol-4-yl)-8-methyl-6-[2-(oxetan-3-yl)ethynyl]-1H-1,5-naphthyridin-2-one], with 15.2 nM; and `Cc1cc2[nH]c(=O)c(N)c(-c3ccc(F)c4[nH]ncc34)c2nc1-c1cccs1` [Example 151, 3-Amino-4-(7-fluoro-1H-indazol-4-yl)-7-methyl-6-(2-thienyl)-1H-1,5-naphthyridin-2-one], with 13 nM. On to `Cc1cc2[nH]c(=O)c(N)c(-c3ccc(F)c4[nH]ncc34)c2nc1-c1cscn1` [Example 152, 3-Amino-4-(7-fluoro-1H-indazol-4-yl)-7-methyl-6-thiazol-4-yl-1H-1,5-naphthyridin-2-one], for which the IC50 was determined as 13.8 nM. The figure for `Cc1cc2[nH]c(=O)c(N)c(-c3ccc(F)c4[nH]ncc34)c2nc1-c1nccs1` [Example 153, 3-Amino-4-(7-fluoro-1H-indazol-4-yl)-7-methyl-6-thiazol-2-yl-1H-1,5-naphthyridin-2-one] is 11.8 nM; for `Cc1cc2[nH]c(=O)c(N)c(-c3ccc(F)c4[nH]ncc34)c2nc1-c1ncco1` [Example 154, 3-Amino-4-(7-fluoro-1H-indazol-4-yl)-7-methyl-6-oxazol-2-yl-1H-1,5-naphthyridin-2-one] it is under 10 nM. In the case of `Cc1cc2[nH]c(=O)c(N)c(-c3ccc(F)c4[nH]ncc34)c2nc1-c1ccccn1` [Example 155, 3-Amino-4-(7-fluoro-1H-indazol-4-yl)-7-methyl-6-(2-pyridyl)-1H-1,5-naphthyridin-2-one], the IC50 is 14.7 nM. For the compound `CCc1nc2c(-c3ccc(F)c4[nH]ncc34)c(N)c(=O)[nH]c2cc1C` [Example 157, 3-Amino-6-ethyl-4-(7-fluoro-1H-indazol-4-yl)-7-methyl-1H-1,5-naphthyridin-2-one], the IC50 stood at 15.6 nM. In the case of `Cc1cc2[nH]c(=O)c(N)c(-c3ccc(Cl)c4[nH]ncc34)c2nc1C` [Example 159, 3-Amino-4-(7-chloro-1H-indazol-4-yl)-6,7-dimethyl-1H-1,5-naphthyridin-2-one], the IC50 was under 10 nM. With `Cc1c(C2CC2)nc(Cl)c2c(-c3ccc(F)c4[nH]ncc34)c(N)c(=O)[nH]c12` [Example 162, 3-Amino-5-chloro-7-cyclopropyl-4-(7-fluoro-1H-indazol-4-yl)-8-methyl-1H-1,6-naphthyridin-2-one], the IC50 is under 10 nM.

On to `Cc1c(C2CC2)ncc2c(-c3ccc(F)c4[nH]ncc34)c(N)c(=O)[nH]c12` [Example 165, 3-amino-7-cyclopropyl-4-(7-fluoro-1H-indazol-4-yl)-8-methyl-1H-1,6-naphthyridin-2-one], for which the 50% inhibitory concentration (IC50) was under 10 nM.

For the compound `Nc1c(-c2ccc(F)c3[nH]ncc23)c2c(OC(F)F)nc(C3CC3)cc2[nH]c1=O` [Example 168, 3-Amino-7-cyclopropyl-5-(difluoromethoxy)-4-(7-fluoro-1H-indazol-4-yl)-1H-1,6-naphthyridin-2-one], the IC50 was determined as 11.2 nM.
